Experimental data taken from patent US20210369684A1 (MOUNT TAM THERAPEUTICS, INC., priority 2018, published 2021).
Several values for one entry are separate records, joined by “and”; a condition that tells them apart may be missing. Equal values may be shown once.

Test: Brain concentrations after IP administration to mice (LC-MS/MS)
Format: in vivo, mouse
Conditions: for Formula II Concentrations in Mouse Brain / Formula II Concentrations in Mouse Brain, Mean: Day 3, 24.0 h
Method: To carry out these assays using brain homogenates, 20 uL of samples and matrix calibration standards into wells of a 96-well plate, and 10 uL of blank matrix allocated for matrix blanks and control blanks. 160 uL internal standard was then added to all samples except matrix blanks, and 160 uL ACN added to matrix blanks. Samples were then vortexed for 5 minutes and centrifuge for 5 minutes at >3500 rpm. 150 uL of the supernatant was then transferred to a new 96-well plate, and the plates blown down to dryness at 35° C., reconstituted with 90 uL of 70:30 water:acetonitrile (ACN) solution, covered and vortexed prior to analysis. LC and MS conditions were the same as described above for the whole blood analysis. […] The compound of Formula II was administered to mice at 2 mg/kg or 10 mg/kg for three days and the concentration of the compound in brain determined.

In the case of `CO[C@H]1C[C@@H]2CC[C@@H](C)[C@@](O)(C2)C(=O)C(=O)N2CCCC[C@H]2C(=O)O[C@H]([C@H](C)C[C@H]2C[C@H]3C[C@@H]2C[C@@H]3O)CC(=O)[C@H](C)/C=C(\C)[C@@H](O)[C@@H](OC)C(=O)[C@H](C)C[C@H](C)/C=C/C=C/C=C/1C` [Formula II, C37-[(1R,2S,4R,5S)-5-hyhroxybicyclo[2.2.1]heptane] rapamycin], the “concentrations in brain over time (in words)” value (2 mg/kg or 10 mg/kg IP QD for three days, mice) is reported as “sufficient concentrations in brain overtime”, the “Formula II Concentrations in Mouse Brain” value (Group 1, 2 mg/kg IP QD x 3 days, individual animals 7, 8, 9) is reported as 33.7 ng/g and 27.6 ng/g and 31.4 ng/g and the “Formula II Concentrations in Mouse Brain, Mean” value (Group 1, 2 mg/kg IP QD x 3 days) is reported as 30.9 ng/g. The “Formula II Concentrations in Mouse Brain” value (Group 2, 10 mg/kg IP QD x 3 days, individual animals 10, 11, 12) was 121 ng/g and 136 ng/g and 224 ng/g and the “Formula II Concentrations in Mouse Brain, Mean” value (Group 2, 10 mg/kg IP QD x 3 days) was 160 ng/g.
